Measured values from patent US20240092800A1, “USP13 INHIBITORS AND METHODS OF USE THEREOF” (GEORGETOWN UNIVERSITY, priority 2021, published 2024).

Columns and labels:
human USP13 = target: T1, human USP13 (Homo sapiens, UniProt Q92995); experiment: USP13 activity via ELISA in SHSY5Y cells; type: cell-based; details: for IC50: SHSY5Y cell line, estimated with GraphPad Prism, read-out: IC50 to inhibit USP13 activity; for USP13 activity via ELISA: SHSY5Y cells, 5 hours, concentration range of 1 nM-1 mM
T1 construct: USP13 activity via ELISA in human SHSY5Y neuroblastoma cells; endogenous in cells; host or cells: human SH-SY5Y neuroblastoma cells (transiently transfected with human wild-type alpha-synuclein, not with USP13)
T1 sequence (Q92995 1-863): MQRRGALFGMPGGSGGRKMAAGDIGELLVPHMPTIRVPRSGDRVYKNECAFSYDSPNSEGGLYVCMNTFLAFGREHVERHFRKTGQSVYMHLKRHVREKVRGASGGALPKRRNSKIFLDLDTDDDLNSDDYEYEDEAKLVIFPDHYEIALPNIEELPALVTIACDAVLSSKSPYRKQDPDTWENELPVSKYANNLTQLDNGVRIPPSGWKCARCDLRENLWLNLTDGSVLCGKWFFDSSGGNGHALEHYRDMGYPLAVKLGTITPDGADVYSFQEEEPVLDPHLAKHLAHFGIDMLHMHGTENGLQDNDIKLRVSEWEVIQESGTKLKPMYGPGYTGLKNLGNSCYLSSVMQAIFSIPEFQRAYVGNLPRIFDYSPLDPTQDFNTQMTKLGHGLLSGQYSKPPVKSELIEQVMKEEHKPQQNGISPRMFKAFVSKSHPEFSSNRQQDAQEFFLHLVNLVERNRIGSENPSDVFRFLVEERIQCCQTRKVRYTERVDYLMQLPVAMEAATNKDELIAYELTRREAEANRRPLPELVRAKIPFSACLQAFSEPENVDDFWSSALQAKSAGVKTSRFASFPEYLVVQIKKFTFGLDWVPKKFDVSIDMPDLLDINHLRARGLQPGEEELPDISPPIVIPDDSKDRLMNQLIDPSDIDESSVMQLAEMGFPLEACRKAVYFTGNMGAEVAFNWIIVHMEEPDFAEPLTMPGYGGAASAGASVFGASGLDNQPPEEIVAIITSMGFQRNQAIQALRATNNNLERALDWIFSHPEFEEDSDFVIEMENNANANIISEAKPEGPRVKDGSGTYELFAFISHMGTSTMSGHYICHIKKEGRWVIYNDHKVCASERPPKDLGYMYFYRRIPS
Procedure: (§1) Cell lines, transfection, and treatment.
(§2) A total of 25 μL soluble protein was incubated overnight at 4° C. with 25 μL of a mixed bead solution. After washing, samples were incubated with 25 μL detection antibody solution for 1.5 hours at room temperature. Streptavidin-phycoerythrin (25 μL) was added to each well containing the 25 μL of detection antibody solution. Samples were then washed and suspended in 100 μL of sheath fluid. Samples were then run on MAGPIX with Xponent software. The median fluorescent intensity (MFI) data were analyzed using a 5-parameter logistic or spline curve-fitting method for calculating analyte concentrations in samples. Specific alpha-synuclein ELISAs were performed on tissue soluble extracts from midbrain lysates in 1XSTEN buffer. The ELISA for USP13 (MyBioSource, Cat # MBS9335287), Human alpha-synuclein (Biolegend, Cat #844101) and specific p-Tau ser396 (Invitrogen, KHB7031) were performed on cell or brain tissue extracts as described above according to manufacturers' protocol.
Statistical and Data Analysis. All statistical analyses were performed using GraphPad Prism version 5.0 (GraphPad software, Inc, San Diego, CA, USA). Two-tailed student's t-test was used in comparison of means of two groups. Ordinary one-way analysis of variance (ANOVA) followed by Newman-Keuls or Dunnett comparison post hoc tests were used in comparison of means of multiple groups. Asterisks denote actual p-value significances (*<0.05, **<0.01, ***<0.001 and ****<0.0001), and N is the number of animals or the number of independent experiments (cell culture) per group. Unless otherwise indicated, data are expressed as Mean±SD. IC50 to USP13 levels was also estimated using GraphPad Prism version 5.0 (GraphPad software, Inc, San Diego, CA, USA).

human alpha-synuclein = experiment: Alpha-synuclein levels via ELISA in alpha-synuclein-transfected SHSY5Y cells; type: cell-based; details: 5 hours, concentration between 1 and 0.1 nM
Procedure: as §1
Alpha-Synuclein Enzyme-Linked Immunosorbent Assay (ELISA). ELISAs for total human alpha-synuclein (Millipore; Burlington, MA) were conducted using Milliplexed ELISA. Briefly, Xmap technology uses magnetic microspheres that are internally coded with two fluorescent dyes. Through precise combinations of these two dyes, multiple proteins are simultaneously measured within a sample. Each of these spheres is coated with a specific capture antibody. The capture antibody binds to the detection antibody and a reporter molecule, completing the reaction on the surface of the bead.
as §2

[1] = system: human SHSY5Y neuroblastoma cells; experiment: Cell viability by MTT and LDH assays; details: 5 hours, up to 1 mM concentration
Procedure: Human SHSY-5Y neuroblastoma cells were cultured in Dulbecco's Modified Eagle's Medium (DMEM) (ThermoFisher Scientific; Waltham, MA) with 10% Fetal Bovine Serum (FBS) (ThermoFisher) and 1% Penicillin-Streptomycin (PenStrep, ThermoFisher) and incubated at 37° C. under atmospheric oxygen concentrations (21%) with 5% CO2. SHSY-5Y cells were cultured in DMEM with Ham's F12 (1:1) (ThermoFisher) with 20% FBS, 1% PenStrep. Cells were plated at a density tailored to reach 70-80% confluence at the beginning of every experiment. SH-SY5Y cells were transiently transfected for 24 hours with human wild-type α-synuclein using Fugene HD transfection reagent (Promega; Madison, WI) before fresh culture media and drug were added.
Cell viability was determined via lactate dehydrogenase assay on culture media, (ThermoFisher) and MTT assay on plated cells (ThermoFisher).

Row | SMILES | IC50 (human USP13) [nM] | USP13 activity via ELISA (human USP13) | level of alpha-synuclein via ELISA (human alpha-synuclein) | cell death in two viability assays (MTT and LDH) [1]
1 | c1ccc(Nc2ccnc3ccsc23)cc1 [BK50118-A, N-Phenylthieno[3,2-b]pyridin-7-amine] | 26 | significantly reduce the activity of human USP13 | significantly reduce the level of alpha-synuclein | do not cause cell death
2 | Fc1ccc2nccc(Nc3ccccc3)c2c1 [BK50118-B, 6-Fluoro-N-phenylquinolin-4-amine] | 36.9 | significantly reduce the activity of human USP13 | significantly reduce the level of alpha-synuclein | do not cause cell death
3 | Fc1ccc2nccc(NCc3ccccc3)c2c1 [CL3-499, N-Benzyl-6-fluoroquinolin-4-amine] | 1190 | significantly reduce the activity of human USP13 | significantly reduce the level of alpha-synuclein | do not cause cell death
4 | COC(=O)[C@H](Cc1ccccc1)Nc1c([N+](=O)[O-])c(=O)oc2ccccc12 [CL3-512, (S)-Methyl (3-nitro-2-oxo-2H-chromen-4-yl)-phenylalaninate] | 1080 | significantly reduce the activity of human USP13 | significantly reduce the level of alpha-synuclein | do not cause cell death
5 | COC(=O)[C@H](Cc1ccc(O)cc1)Nc1c([N+](=O)[O-])c(=O)oc2ccccc12 [CL3-514, (S)-Methyl (3-nitro-2-oxo-2H-chromen-4-yl)-tyrosinate] | 68.9 | significantly reduce the activity of human USP13 | significantly reduce the level of alpha-synuclein | do not cause cell death
6 | Fc1ccc(CNc2ncnc3ccc(F)cc23)cc1 [Spautin-1, reference compound] | 600 to 700 |  |  | 
